{"source": "patent US20220347125A1", "about": "“ANTITUMOR AGENT AND COMPOUNDING AGENT” (Keio University, priority 2019, published 2022)", "key": {"[1]": {"system": "A549, HCT116 and HSC4", "assay": "Cell viability, oxyfedrine with SSZ or BSO, statements for all three lines (Experimental Example 11)", "details": "48 hours; for effect on cell survival rate: 400 μM sulfasalazine alone or 100 μM L-buthionine sulfoximine alone", "procedure": "Alveolar basal epithelial adenocarcinoma cell line A549, colon adenocarcinoma cell line HCT116, and oral squamous carcinoma cell line HSC-4, all of which are resistant to sulfasalazine or L-buthionine-sulfoximine, were seeded in 96-well plates at 4000 cells/well, and the culture was started. RPMI was used for the A549 and DMEM was used for the HCT116 and HSC-4 as culture media. After 24 hours, each medium was replaced with a medium containing 50 or 100 μM oxyfedrine or an equal volume of DMSO, and 0 (no sulfasalazine and no L-buthionine sulfoximine) or 400 μM sulfasalazine or 100 μM L-buthionine sulfoximine, and the culture was continued for 48 hours. Then, the cells were assayed for cell viability using CellTiter-Glo (Promega), and a cell survival rate in each case was calculated taking the number of live cells in the control (DMSO added, and sulfasalazine and L-buthionine sulfoximine not added) as 100%."}, "[2]": {"system": "SSZ-resistant tumor cells (HCT116 and HSC-4)", "assay": "Cell survival rate after ionizing radiation in the presence of OXY (Experimental Example 16)", "format": "cell-based", "details": "irradiated at 4, 6 or 10 Gy in the presence of 50 μM OXY, after 24 hours; versus irradiation or OXY alone", "procedure": "(§1) In this experimental example, SSZ-resistant tumor cells (HCT116 and HSC-4) were irradiated with ionizing radiation at a dose of 4, 6, or 10 Gy using an X-ray irradiation system (Hitachi MBR-1520R-4, settings: 150 kV, 20 mA) in the presence of 50 μM oxyfedrine (OXY). In parallel, samples without OXY and ionizing radiation (0 Gy) were processed as a control. After 24 hours, cell survival rate was calculated as in Experimental Example 1. In addition, intracellular HNE was visualized as in Experimental Example 6."}, "[3]": {"system": "SSZ-resistant tumor cells (HCT116 and HSC-4)", "assay": "Intracellular GSH levels, GSH-Glo Glutathione Assay (Experimental Example 12)", "format": "cell-based", "details": "BSO or OXY alone, or SSZ with OXY, after 48 hours", "procedure": "SSZ-resistant tumor cells (HCT116 and HSC-4) were used and the cells were treated in a similar manner to that in Example 11, and the intracellular GSH levels were measured after 48 hours using a GSH-Glo Glutathione Assay Kit (Promega)."}, "[4]": {"system": "sulfasalazine-resistant, oral squamous carcinoma cell line HSC-2", "assay": "In vivo tumor weight, X-irradiation and oxyfedrine (Experimental Example 19)", "parameters": "species or system nude mice", "details": "oxyfedrine 20-30 mg/kg intraperitoneally Days 1-7, versus non-treated group", "procedure": "The mice were injected intraperitoneally with oxyfedrine (OXY) (20 mg/kg) for 3 consecutive days (Days 1-3) immediately after transplantation. On Day4, oxyfedrine (30 mg/kg) was intraperitoneally administered, and X-rays (4, 6, or 10 Gy) were irradiated to the nude mice 2 hours later. Then, after intraperitoneal administration of oxyfedrine (20 mg/kg) for 3 days (Days 5-7), tumors were collected on Day 7 and weighed. The results are shown in a bar graph in FIG. 21. The groups of nude mice on which transplantation was performed in the same way, to which oxyfedrine was administered in the same way without X-irradiation, and to which no oxyfedrine was administered with X-irradiation in the same way, were used as controls. For statistical treatment, Student's 1-test was performed between the oxyfedrine and non-treated groups for each X-ray dose, and p value of less than 0.05 was considered significant."}, "[5]": {"system": "sulfasalazine-resistant tumor cells (HCT116 and HSC-4)", "assay": "Intracellular HNE accumulation, SSZ or BSO with OXY (Experimental Example 13)", "format": "cell-based", "details": "SSZ, BSO or OXY alone, or SSZ or BSO in combination with OXY", "procedure": "(§2) As in Experimental Example 1, HSC-4 cells were cultured in a medium containing 50 μM dyclonine or an equal volume of DMSO and 0 μM (not added) or 400 μM sulfasalazine, and the treated cells were fixed with 4% PFA-PBS. Then, the cells were permeabilized with 0.2% Triton X100-PBS, followed by blocking with 3% BSA-PBS. Subsequently, fluorescent staining was performed using an anti-HNE antibody as the primary antibody and AlexaFluor 488-conjugated anti-mouse IgG antibody as the secondary antibody. As a positive control, cells incubated with 50 μM HNE for 30 min were used and stained using antibodies in a similar manner.\nIn this experimental example, sulfasalazine-resistant tumor cells (HCT116 and HSC-4) were used, and the cells were treated as in Experimental Example 6 and then observed under a fluorescence microscope."}, "[6]": {"system": "SSZ-resistant tumor cells (HCT116 and HSC-4)", "assay": "Intracellular HNE after ionizing radiation in the presence of OXY (Experimental Example 16)", "format": "cell-based", "details": "irradiation and 50 μM OXY treatment in combination", "procedure": "as §1"}, "[7]": {"system": "HSC-4 cells", "assay": "Intracellular HNE accumulation, anti-HNE fluorescent staining (Experimental Example 6)", "format": "cell-based", "details": "50 μM dyclonine and/or 400 μM sulfasalazine", "procedure": "as §2"}, "[8]": {"system": "HSC-4, a sulfasalazine-resistant oral squamous carcinoma cell line", "assay": "Cell viability (CellTiter-Glo), sulfasalazine and dyclonine (Experimental Example 1)", "format": "cell-based", "details": "48 hours", "procedure": "HSC-4, a sulfasalazine-resistant oral squamous carcinoma cell line, was seeded in a 96-well plate at 2000 cells/well, and culture was started. DMEM was used as the culture medium. After 24 hours, the medium was replaced with a medium containing 50 μM dyclonine or an equal volume of DMSO, as well as 0 (not added), 50, 100, 200, or 400 μM sulfasalazine, and the culture was continued for 48 hours."}, "[9]": {"system": "ALDH", "assay": "ALDH activity, ALDEFLUOR Kit with FACS in HSC-4 cells (Experimental Example 5)", "format": "cell-based", "details": "50 μM dyclonine 24 hours, or DEAB, DMSO-treated cells approximately 25%", "procedure": "HSC-4 cells, a sulfasalazine-resistant oral squamous carcinoma cell line, were seeded at 8×10^5 cells/dish in 10-cm cell culture dishes, and culture was started. DMEM was used as the culture medium. After 24 hours, the medium was replaced with a medium containing 50 μM dyclonine (solvent: DMSO), and the cells were cultured for another 24 hours. The cells were then collected, stained with the ALDEFLUOR Kit (STEMCELL Technologies) for ALDH activity in the presence of N,N-diethylaminobenzaldehyde (DEAB), and analyzed by FACS (“Dyclonine” in the figure). As a control, experimental results are shown for cells cultured in the absence of DEAB which were not stained with the ALDEFLUOR Kit (“Unstained” in the figure), and cells that were stained with the ALDEFLUOR Kit after replacing the medium with an equal volume of medium with DMSO and without dyclonine (“Non-treatment” in the figure). For the positive cell counts, a gate was set to gate out positive cells to almost 0% in the DMSO-treated sample stained with the ALDEFLUOR Kit in the presence of DEAB (“DEAB” in the figure), and the positive rate in each case was calculated."}, "[10]": {"system": "HSC-4 cells", "assay": "Dyclonine sensitivity after xCT knockdown, cell viability (Experimental Example 2)", "format": "cell-based", "details": "48 hours", "procedure": "HSC-4 cells, a sulfasalazine-resistant oral squamous carcinoma cell line, were seeded in a 96-well plate at 3000 cells/well, and nonsilencing control (scrambled (Sense: UUCUCCGAACGUGUCACGUtt (SEQ ID NO. 1), Antisense: ACGUGACACGUUCGGAGAAtt (SEQ ID NO. 2))) and siRNA or xCT specific siRNA (xCT siRNA #1 Sense: AGAAAUCUGGAGGUCAUUAtt (SEQ ID NO. 3), Antisense: […] (SEQ ID NO. 4), xCT siRNA #2 Sense: CCAGAACAUUACAAAUAAUtt (SEQ ID NO. 5), Antisense: AUUAUUUGUAAUGUUCUGGtt (SEQ ID NO. 6)) were lipofected using Lipofectamine RNAiMAX (Thermo Fisher Scientific), and culture was started. DMEM was used as the culture medium. After 24 hours, the medium was replaced with a medium containing 50 μM dyclonine (solvent: DMSO) or an equal volume of DMSO, and the culture was continued for 48 hours."}, "[11]": {"system": "A549 cells", "assay": "Cell viability, Nrf2 siRNA or ML385 with OXY and SSZ or BSO (Experimental Example 18)", "format": "cell-based", "details": "in addition to 400 μM SSZ and 50 μM OXY, 48 hours", "procedure": "A549 cells were transfected with siRNA against the Nrf2 gene as in Example 17, or the medium was supplemented with ML385 that is an Nrf2 inhibitor. Cells were cultured for 48 hours in a medium containing 50 μM OXY, and 400 μM SSZ or 100 μM BSO, as in Example 11. Then, the cells were assayed for cell viability. As a control, the experiments were performed in a medium without any of the above. DMSO, however, was added appropriately to add a constant volume of DMSO in all cases."}, "[12]": {"system": "A549 cells", "assay": "Western blotting after Nrf2 siRNA lipofection (Experimental Example 17)", "format": "cell-based", "details": "48 hours after lipofection", "procedure": "Nrf2, xCT, and β-actin expressions were detected in the extracts of SSZ-resistant tumor cells (HCT116, HSC-4, and A549) via Western blotting with primary antibodies against Nrf2, xCT, and β-actin and HRP-conjugated secondary antibody. Chemiluminescence Reagent Plus (Perkin-Elmer Japan) was used for detection.\nNext, siRNA against the Nrf2 gene was lipofected into A549 cells to suppress the Nrf2 gene expression. The extracts of the lipofected A549 cells were prepared after 48 hours and the expressions of Nrf2, xCT, ALDH3A1, and β-actin were examined via Western blotting in the same way as above. The following sequences (bases shown in lower case are DNA overhangs) were used as siRNA."}}, "note": "d = 2'-deoxy (DNA); r = 2'-OH (RNA)", "data": [{"molecule": "oxyfedrine", "values": [{"measurement": "cytotoxic effect", "setting": "[1]; 50 μM oxyfedrine alone, without sulfasalazine", "result": "no significant cytotoxic effect"}, {"measurement": "cell survival rate", "setting": "[2]", "result": "significantly and markedly reduced"}, {"measurement": "intracellular GSH levels", "setting": "[3]", "result": "did not reduce the intracellular GSH levels"}, {"measurement": "tumor weight gain", "setting": "[4]; 4 Gy X-irradiation", "result": "tended to be suppressed"}, {"measurement": "tumor weight gain", "setting": "[4]; 6 Gy X-irradiation", "result": "significantly suppressed"}, {"measurement": "tumor weight gain", "setting": "[4]; 10 Gy X-irradiation", "result": "significantly suppressed"}, {"measurement": "tumor weight gain", "setting": "[4]; without X-irradiation", "result": "tended to be suppressed"}, {"measurement": "intracellular HNE levels and frequency", "setting": "[5]", "result": "increased intracellular HNE levels were observed at a low frequency"}, {"measurement": "intracellular HNE-accumulating cells", "setting": "[6]", "result": "high levels of intracellular HNE-accumulating cells were observed at a high frequency"}]}, {"molecule": "CCCCS(=N)(=O)CC[C@H](N)C(=O)O", "note": "(stereo partly drawn) [BSO, L-buthionine-sulfoximine]", "values": [{"measurement": "effect on cell survival rate", "setting": "[1]", "result": "little effect"}, {"measurement": "intracellular GSH levels", "setting": "[3]", "result": "reduced"}, {"measurement": "intracellular HNE levels and frequency", "setting": "[5]", "result": "increased intracellular HNE levels were observed at a low frequency"}]}, {"molecule": "O=C(O)c1cc(/N=N/c2ccc(S(=O)(=O)Nc3ccccn3)cc2)ccc1O", "note": "[sulfasalazine]", "values": [{"measurement": "effect on cell survival rate", "setting": "[1]", "result": "little effect"}, {"measurement": "intracellular HNE level and frequency", "setting": "[7]", "result": "an increase in intracellular HNE level was observed at a low frequency"}, {"measurement": "intracellular GSH levels", "setting": "[3]", "result": "reduced"}, {"measurement": "intracellular HNE levels and frequency", "setting": "[5]", "result": "increased intracellular HNE levels were observed at a low frequency"}, {"measurement": "effect on cell survival", "setting": "[8]; sulfasalazine alone, 50-400 μM", "result": "almost no effect"}]}, {"molecule": "CCN(CC)c1ccc(C=O)cc1", "note": "[DEAB, N,N-diethylaminobenzaldehyde]", "values": [{"measurement": "cell population with high ALDH activity", "setting": "[9]", "result": "approximately 1%"}]}, {"molecule": "CCCCOc1ccc(C(=O)CCN2CCCCC2)cc1", "note": "[dyclonine]", "values": [{"measurement": "cell population with high ALDH activity", "setting": "[9]", "result": "approximately 1%"}, {"measurement": "intracellular HNE level and frequency", "setting": "[7]", "result": "an increase in intracellular HNE level was observed at a low frequency"}, {"measurement": "HSC-4 cell survival rate", "setting": "[10]; 50 μM dyclonine alone (nonsilencing control)", "result": "approximately 60%"}, {"measurement": "HSC-4 cell survival rate", "setting": "[10]; xCT knockdown (xCT siRNA) in the presence of 50 μM dyclonine", "result": "10-20%"}, {"measurement": "cell survival", "setting": "[8]; 50 μM dyclonine alone, no sulfasalazine added, control (DMSO) = 100%", "result": 80, "unit": "%"}]}, {"molecule": "Cc1ccccc1C(=O)N1CCc2cc(-c3nc(NC(=O)Cc4ccc5c(c4)OCO5)sc3C)ccc21", "note": "[ML385]", "values": [{"measurement": "cell survival rate", "setting": "[11]", "result": "effectively reduced"}]}, {"molecule": "siRNA against the Nrf2 gene: siRNA against the Nrf2 gene, SEQ ID NO. 9 and 10 (chain 1 UCCUACUGUGAUGUGAAAUTT; chain 2 AUUUCACAUCACAGUAGGAGC; sugars from the 5' end r19 d2, backbone not given here)", "values": [{"measurement": "expressions of xCT and ALDH3A1", "setting": "[12]", "result": "suppressed"}, {"measurement": "cell survival rate", "setting": "[11]", "result": "effectively reduced"}]}]}
